pIC50: −log10 of the molar value.
Legend:
Format in all cases: cell-based
MDA-MB-436 cells = test: Cell proliferation assay (MDA-MB-436); conditions: Homo sapiens, 168 h, 7 days
Protocol: (§1) Cells are counted, diluted to desired density and 40 μL of cell suspension is added into each 384-well tissue-culture treated plates. Plates are incubated in Tissue Culture incubator at 37° C./5% C02 overnight.
(§2) Next day, 40 nl test compounds that are prepared from source plates are transferred to the seeded cells from overnight. Plates are incubated at 37° C./5% C02 for a total of 7 days. After 7-day incubation, plates are equilibrated to room temperature and 30 ul of Cell Counting-Lite is added to each well for a 30 min incubation followed by reading on EnVision.
(§3) The letter codes for the cell proliferation assay in A2780, HCC1806, and MDA-MB-436 cells include: A (<10 nM), B (>10-100 nM), C (>100-1000 nM), D (>1000-10000 nM), E (>10000 nM), and “-” is not tested.

PARP1 = PARP1 (Homo sapiens, UniProt P09874); test: PARP trapping assay in U2OS cells; set-up: endogenous in cells; host or cells: U2OS; conditions: U2OS cells, MMS, 4 hrs; read-out: PARP Trapping (U2OS)
PARP1, sequence (P09874 whole entry): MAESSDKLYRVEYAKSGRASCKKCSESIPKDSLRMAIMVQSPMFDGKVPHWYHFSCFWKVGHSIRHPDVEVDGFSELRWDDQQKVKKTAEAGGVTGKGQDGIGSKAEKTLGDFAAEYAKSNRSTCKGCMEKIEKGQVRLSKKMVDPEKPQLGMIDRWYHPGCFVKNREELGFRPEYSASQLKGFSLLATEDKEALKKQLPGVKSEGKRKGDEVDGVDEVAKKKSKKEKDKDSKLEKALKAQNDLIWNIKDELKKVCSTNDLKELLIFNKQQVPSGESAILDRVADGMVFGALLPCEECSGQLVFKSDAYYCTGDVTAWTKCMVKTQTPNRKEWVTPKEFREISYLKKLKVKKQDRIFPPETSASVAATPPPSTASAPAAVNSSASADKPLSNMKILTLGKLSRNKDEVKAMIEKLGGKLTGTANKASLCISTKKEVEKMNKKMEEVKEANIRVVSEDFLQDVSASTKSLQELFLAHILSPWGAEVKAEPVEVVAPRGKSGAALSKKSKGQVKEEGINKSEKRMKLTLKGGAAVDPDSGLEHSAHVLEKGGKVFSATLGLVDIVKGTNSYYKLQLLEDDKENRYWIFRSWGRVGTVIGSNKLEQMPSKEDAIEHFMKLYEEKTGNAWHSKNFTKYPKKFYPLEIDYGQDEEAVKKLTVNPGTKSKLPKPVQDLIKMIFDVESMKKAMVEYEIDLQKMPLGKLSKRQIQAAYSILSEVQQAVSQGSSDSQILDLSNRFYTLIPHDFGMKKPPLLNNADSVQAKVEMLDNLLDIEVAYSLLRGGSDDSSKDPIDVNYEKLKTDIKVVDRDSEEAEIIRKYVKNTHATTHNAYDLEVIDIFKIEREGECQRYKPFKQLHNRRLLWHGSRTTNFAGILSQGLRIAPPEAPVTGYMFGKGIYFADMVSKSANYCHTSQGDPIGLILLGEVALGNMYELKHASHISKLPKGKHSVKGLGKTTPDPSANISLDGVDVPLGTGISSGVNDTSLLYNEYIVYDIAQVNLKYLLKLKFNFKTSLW
Protocol: U2OS cells are seeded at 15,000 cells/well in 90 ul medium and incubated in the TC incubator for overnight.
Next day, test compounds are prepared in a source plate along with addition of DNA damage reagent MMS simultaneously and 10 ul of the diluted mixture is added to the cell plate and incubated for 4 hrs under T/C conditions.
After 4 hrs, following aspiration and washing, add 100 ul of cold cytoskeleton removal buffer (0.5% Triton X-100) and incubated for 10 min. At the end of incubation, slowly the buffer is removed, and cells are fixed with ice cold MeOH for 15 min at −20C. Followed by wash steps, cells are blocked with 1×PBS/3% BSA/0.05% Tween for 1 h at room temperature.
Cells are stained with anti PARP1 antibody (abeam ab227244, 1:1000), in 1×PBS/1% BSA overnight at 4C.
Wash and add DAPI, scan cells in Celigo.
Data Analysis: DAPI staining is used to segment nuclei and AF488 fluorescence intensity per nucleus is measured.
(§4) The letter codes for the PARP1-enzyme assay include: A (<1 nM), B (>1-10 nM), C (>10-100 nM), D (>100-1000 nM), E (>1000 nM), and “-” is not tested. The letter codes for the PARP trapping assay, and parylation assay include: A (<10 nM), B (>10-100 nM), C (>100-1000 nM), […], E (>10000 nM), and “-” is not tested.

HCC1806 cells = test: Cell proliferation assay (HCC1806); conditions: Homo sapiens, 168 h, 7 days
Protocol: as §1, §2, §3

[1] = system: Poly/Mono-ADP Ribose in U2OS cells; test: PAR in cell western assay (parylation) in U2OS cells; conditions: Homo sapiens; U2OS cells, 6 hrs, 2 mM H2O2; read-out: Parylation (U2OS)
Protocol: U2OS cells are seeded at 2667 cells per well in 24 ul medium into poly-D lysine-coated 384 well plate and incubated in the TC incubator for O/N
The next day, test comps are diluted in a source plate and 6 μL of the diluted comp is added to the cell plate; mixed well and incubated for 6 hrs. DNA damage is induced with 2 mM H2O2 for 10 min. After discarding the medium, cells are fixed in ice cold Methanol at for 20 min at −20C. After a wash step at room temperature, cells are permeabilized with 0.05% NP-40 in PBS for 10 min, followed by wash steps. Cells are blocked with 1% BSA, at room temperature for 1 hr. Cells are stained with anti mono/polyADP ribose antibody (E6F6A, Cell signaling, 1:5000) in 1×PBS/1% BSA/0.05% Tween o/n at 4C.
Next Day, cells are washed and incubated with anti-Rabbit 800CV (Licor antibody, 1:500) and CellTag 700 (Licor, 1:800) in 1×PBS/1% BSA/0.05% Tween for 1 h. After washing, plates are scanned using LICOR and are quantified.
Parylation inhibition is reported as % control inhibition.
as §4

A2780 cells = test: Cell proliferation assay (A2780); conditions: Homo sapiens, 168 h, 7 days
Protocol: as §1, §2, §3

Row | pIC50 (MDA-MB-436 cells) | pIC50 (PARP1) | pIC50 (HCC1806 cells) | pIC50 [1] | pIC50 (A2780 cells) | SMILES
1 | > 8.00 | 7.00 to 8.00 | 7.00 to 8.00 | > 8.00 | – | O=C(CN1CCC(OC2CCN(C(=O)c3c(F)cc(-c4ccccc4)cc3F)CC2)CC1)N1CCN(C(=O)c2cc(Cc3n[nH]c(=O)c4ccccc34)ccc2F)CC1 [Compound I-634]
2 | > 8.00 | – | 7.00 to 8.00 | 6.00 to 7.00 | 7.00 to 8.00 | CC(C)(C)C(=O)N1CCC[C@H](c2cccc(C(=O)N[C@@H](C(=O)N3CCC(OC4CCN(CC(=O)N5CCN(C(=O)c6cc(Cc7n[nH]c(=O)c8ccccc78)ccc6F)CC5)CC4)CC3)C3CCCCC3)c2F)C1 [Compound I-910]
3 | 7.00 to 8.00 | 6.00 to 7.00 | – | 7.00 to 8.00 | 6.00 to 7.00 | CCc1cccc(-c2cnc(C(=O)N3CCC(CN4CCN(CC(=O)N5CCN(C(=O)c6cc(Cc7n[nH]c(=O)c8ccccc78)ccc6F)CC5)CC4)CC3)c(NC(=O)CN3CCOCC3)c2)c1 [Compound I-333]
4 | > 8.00 | 7.00 to 8.00 | – | 7.00 to 8.00 | 7.00 to 8.00 | O=C(N[C@@H](C(=O)N1CCN(CC23CCC(C(=O)N4CCN(C(=O)c5cc(Cc6n[nH]c(=O)c7ccccc67)ccc5F)CC4)(CC2)CO3)CC1)C1CCCCC1)c1cccc(C2CCCN(C(=O)CNC3CC3)C2)c1 (some centres unmarked) [Compound I-380]
5 | > 8.00 | 6.00 to 7.00 | – | 7.00 to 8.00 | 7.00 to 8.00 | CCc1cccc(-c2cnc(C(=O)N3CCC(CN4CCN(CC(=O)N5CCN(C(=O)c6cc(Cc7n[nH]c(=O)c8ccccc78)ccc6F)CC5)CC4)CC3)c(C#N)c2)c1 [Compound I-419]
6 | > 8.00 | – | 7.00 to 8.00 | 6.00 to 7.00 | 7.00 to 8.00 | CC(C)(C)C(=O)N1CCC[C@@](F)(c2cccc(C(=O)N[C@@H](C(=O)N3CCC(OC4CCN(CC(=O)N5CCN(C(=O)c6cc(Cc7n[nH]c(=O)c8ccccc78)ccc6F)CC5)CC4)CC3)C3CCCCC3)c2F)C1 [Compound I-994]
7 | 6.00 to 7.00 | 7.00 to 8.00 | – | 7.00 to 8.00 | 6.00 to 7.00 | CCOc1cc(OC)ccc1CNCC(=O)N1CCCC(c2ccc(F)c(C(=O)N[C@@H](C(=O)N3CCN(CC4CCN(CC(=O)N5CCN(C(=O)c6cc(Cc7n[nH]c(=O)c8ccccc78)ccc6F)CC5)CC4)CC3)C3CCCCC3)c2)C1 (some centres unmarked) [Compound I-308]
8 | > 8.00 | 6.00 to 7.00 | – | 6.00 to 7.00 | 6.00 to 7.00 | CCc1cccc(-c2cc(N)c(C(=O)N3CCC(CN4CCN(CC(=O)N5CCN(C(=O)c6cc(Cc7n[nH]c(=O)c8ccccc78)ccc6F)CC5)CC4)CC3)c(F)c2)c1 [Compound I-409]
9 | > 8.00 | – | 7.00 to 8.00 | 7.00 to 8.00 | 7.00 to 8.00 | O=C(CN1CCN(C[C@@H]2C[C@@H]3CC[C@H]2CN3C(=O)c2c(F)cc(-c3ccccc3)cc2F)CC1)N1CCN(C(=O)c2cc(Cc3n[nH]c(=O)c4ccccc34)ccc2F)CC1 [Compound I-777]
10 | 7.00 to 8.00 | > 8.00 | – | 6.00 to 7.00 | 7.00 to 8.00 | O=C(N[C@@H](C(=O)N1CCN(CC23CCC(C(=O)N4CCN(C(=O)c5cc(Cc6n[nH]c(=O)c7ccccc67)ccc5F)CC4)(CC2)CO3)CC1)C1CCCCC1)c1cccc([C@H]2CCCN(C(=O)CNC3CC3)C2)c1 (racemic) [Compound I-381]
11 | 7.00 to 8.00 | – | 6.00 to 7.00 | 6.00 to 7.00 | 6.00 to 7.00 | C[C@@H]1CN(CC2CCN(CC(=O)N3CCN(C(=O)c4cc(Cc5n[nH]c(=O)c6ccccc56)ccc4F)CC3)CC2)CCN1C(=O)[C@H](NC(=O)c1cccc([C@@H]2CCCN(C(=O)C(C)(C)C)C2)c1)C1CCCCC1 [Compound I-973]
12 | > 8.00 | 7.00 to 8.00 | 7.00 to 8.00 | > 8.00 | – | O=C(CN1CCC(OC2CCN(C(=O)c3ncc(-c4ccccc4)cc3F)CC2)CC1)N1CCN(C(=O)c2cc(Cc3n[nH]c(=O)c4ccccc34)ccc2F)CC1 [Compound I-709]
13 | > 8.00 | 7.00 to 8.00 | – | 6.00 to 7.00 | 7.00 to 8.00 | CCc1cccc(-c2cnc(C(=O)N3CCC(CC(=O)N4CCN(C(=O)c5cc(Cc6n[nH]c(=O)c7ccccc67)ccc5F)CC4)CC3)c(NC(=O)CNCc3cccc(C)c3)c2)c1 [Compound I-412]
14 | > 8.00 | 7.00 to 8.00 | 7.00 to 8.00 | 7.00 to 8.00 | – | O=C(N[C@@H](C(=O)N1CCC(OC2CCN(CC(=O)N3CCN(C(=O)c4cc(Cc5n[nH]c(=O)c6ccccc56)ccc4F)CC3)CC2)CC1)C1CCCCC1)c1ccc(N2CCN(C(=O)C3CC3)CC2)cc1F [Compound I-745]
15 | > 8.00 | 7.00 to 8.00 | 7.00 to 8.00 | 7.00 to 8.00 | – | O=C(N[C@@H](C(=O)N1CCC(CC(=O)N2CCN(C(=O)c3cc(Cc4n[nH]c(=O)c5ccccc45)ccc3F)CC2)CC1)C1CCCCC1)c1cccc(C2CCCN(C(=O)C3CC3)C2)c1F (some centres unmarked) [Compound I-715]
16 | 6.00 to 7.00 | 7.00 to 8.00 | 7.00 to 8.00 | 6.00 to 7.00 | – | O=C(N[C@@H](C(=O)N1CCC(OC2CCN(CC(=O)N3CCN(C(=O)c4cc(Cc5n[nH]c(=O)c6ccccc56)ccc4F)CC3)CC2)CC1)C1CCCCC1)c1cccc(C2CCCN(C(=O)C34CC(C3)C4)C2)c1F (some centres unmarked) [Compound I-637]
17 | > 8.00 | > 8.00 | 7.00 to 8.00 | > 8.00 | – | O=C(CN1CCC(OC2CCN(C(=O)c3c(F)cc(-c4ccncc4)cc3F)CC2)CC1)N1CCN(C(=O)c2cc(Cc3n[nH]c(=O)c4ccccc34)ccc2F)CC1 [Compound I-727]
18 | 7.00 to 8.00 | 6.00 to 7.00 | – | 6.00 to 7.00 | 7.00 to 8.00 | O=C(N[C@@H](C(=O)N1CCN(CC(=O)N2CCN(C(=O)c3cc(Cc4n[nH]c(=O)c5ccccc45)ccc3F)CC2)CC1)C1CCCCC1)c1cc(C2CCCN(C(=O)C3CC3)C2)ccc1F (some centres unmarked) [Compound I-453]
19 | > 8.00 | 7.00 to 8.00 | 7.00 to 8.00 | 6.00 to 7.00 | – | CC1(C(=O)N2CCCC(c3cccc(C(=O)N[C@@H](C(=O)N4CCC(OC5CCN(CC(=O)N6CCN(C(=O)c7cc(Cc8n[nH]c(=O)c9ccccc89)ccc7F)CC6)CC5)CC4)C4CCCCC4)c3F)C2)CC1 (some centres unmarked) [Compound I-660]
20 | > 8.00 | 7.00 to 8.00 | 7.00 to 8.00 | 7.00 to 8.00 | – | CC1(C)CC(c2ccc(C(=O)N[C@@H](C(=O)N3CCC(OC4CCN(CC(=O)N5CCN(C(=O)c6cc(Cc7n[nH]c(=O)c8ccccc78)ccc6F)CC5)CC4)CC3)C3CCCCC3)c(F)c2)CCN1C(=O)C1CC1 (some centres unmarked) [Compound I-743]
21 | > 8.00 | 7.00 to 8.00 | – | 7.00 to 8.00 | 7.00 to 8.00 | O=C(N[C@@H](C(=O)N1CCN(CC23CCC(C(=O)N4CCN(C(=O)c5cc(Cc6n[nH]c(=O)c7ccccc67)ccc5F)CC4)(CC2)CO3)CC1)C1CCCCC1)c1cccc([C@@H]2CCCN(C(=O)CNC3CC3)C2)c1 [Compound I-382]
22 | 6.00 to 7.00 | 6.00 to 7.00 | – | 7.00 to 8.00 | 7.00 to 8.00 | O=C(N[C@@H](C(=O)N1CCN(CC(=O)N2CCN(C(=O)c3cc(Cc4n[nH]c(=O)c5ccccc45)ccc3F)CC2)CC1)C1CCCCC1)c1cccc(C2CCCN(C(=O)C3CC3)C2)c1F (some centres unmarked) [Compound I-454]
23 | > 8.00 | 7.00 to 8.00 | 7.00 to 8.00 | 6.00 to 7.00 | – | CC(C)(C)C(=O)N1CCCC(c2cccc(C(=O)N[C@@H](C(=O)N3CCC(OC4CCN(CC(=O)N5CCN(C(=O)c6cc(Cc7n[nH]c(=O)c8ccccc78)ccc6F)CC5)CC4)CC3)C3CCCCC3)c2F)C1 (some centres unmarked) [Compound I-661]
